Laboratory results reported in patent US9416115B2, “Fused heterocyclic compounds as ion channel modulators” (Gilead Sciences, Inc., priority 2013, dated 2016).

Key:
[1] = target: wild-type human cardiac sodium channel, hNav1.5 (Homo sapiens, UniProt Q14524); test: Late INa screening assay (QPatch whole cell patch clamp, Tefluthrin-induced late current); format: cell-based; conditions: HEK293 hNav1.5, percent block of late INa
Outline: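 HEK293 cells stably expressing hNav1.5 without beta subunits were whole-cell patch clamped at 23-25 °C, stepping from −120 to −20 mV for 250 ms at 0.1 Hz. Late current (240–265 ms) was induced with 10 μM Tefluthrin, and compounds were added typically at 0.3 or 1 μM. Percent block was taken against 0 Na baseline with rundown correction.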

hNaV1.2 (SCN2A) = target: T1, hNaV1.2 (SCN2A) (Homo sapiens, UniProt Q99250); test: Use-dependent inhibition of the CNS Nav1.2 sodium channel; format: cell-based; conditions: use-dependent block, 25 Hz, pulse 20, read-out: Nav1.2 UDB 25 Hz 10 uM
T1 construct: expressed in transfected cells
T1 sequence (Q99250 whole entry): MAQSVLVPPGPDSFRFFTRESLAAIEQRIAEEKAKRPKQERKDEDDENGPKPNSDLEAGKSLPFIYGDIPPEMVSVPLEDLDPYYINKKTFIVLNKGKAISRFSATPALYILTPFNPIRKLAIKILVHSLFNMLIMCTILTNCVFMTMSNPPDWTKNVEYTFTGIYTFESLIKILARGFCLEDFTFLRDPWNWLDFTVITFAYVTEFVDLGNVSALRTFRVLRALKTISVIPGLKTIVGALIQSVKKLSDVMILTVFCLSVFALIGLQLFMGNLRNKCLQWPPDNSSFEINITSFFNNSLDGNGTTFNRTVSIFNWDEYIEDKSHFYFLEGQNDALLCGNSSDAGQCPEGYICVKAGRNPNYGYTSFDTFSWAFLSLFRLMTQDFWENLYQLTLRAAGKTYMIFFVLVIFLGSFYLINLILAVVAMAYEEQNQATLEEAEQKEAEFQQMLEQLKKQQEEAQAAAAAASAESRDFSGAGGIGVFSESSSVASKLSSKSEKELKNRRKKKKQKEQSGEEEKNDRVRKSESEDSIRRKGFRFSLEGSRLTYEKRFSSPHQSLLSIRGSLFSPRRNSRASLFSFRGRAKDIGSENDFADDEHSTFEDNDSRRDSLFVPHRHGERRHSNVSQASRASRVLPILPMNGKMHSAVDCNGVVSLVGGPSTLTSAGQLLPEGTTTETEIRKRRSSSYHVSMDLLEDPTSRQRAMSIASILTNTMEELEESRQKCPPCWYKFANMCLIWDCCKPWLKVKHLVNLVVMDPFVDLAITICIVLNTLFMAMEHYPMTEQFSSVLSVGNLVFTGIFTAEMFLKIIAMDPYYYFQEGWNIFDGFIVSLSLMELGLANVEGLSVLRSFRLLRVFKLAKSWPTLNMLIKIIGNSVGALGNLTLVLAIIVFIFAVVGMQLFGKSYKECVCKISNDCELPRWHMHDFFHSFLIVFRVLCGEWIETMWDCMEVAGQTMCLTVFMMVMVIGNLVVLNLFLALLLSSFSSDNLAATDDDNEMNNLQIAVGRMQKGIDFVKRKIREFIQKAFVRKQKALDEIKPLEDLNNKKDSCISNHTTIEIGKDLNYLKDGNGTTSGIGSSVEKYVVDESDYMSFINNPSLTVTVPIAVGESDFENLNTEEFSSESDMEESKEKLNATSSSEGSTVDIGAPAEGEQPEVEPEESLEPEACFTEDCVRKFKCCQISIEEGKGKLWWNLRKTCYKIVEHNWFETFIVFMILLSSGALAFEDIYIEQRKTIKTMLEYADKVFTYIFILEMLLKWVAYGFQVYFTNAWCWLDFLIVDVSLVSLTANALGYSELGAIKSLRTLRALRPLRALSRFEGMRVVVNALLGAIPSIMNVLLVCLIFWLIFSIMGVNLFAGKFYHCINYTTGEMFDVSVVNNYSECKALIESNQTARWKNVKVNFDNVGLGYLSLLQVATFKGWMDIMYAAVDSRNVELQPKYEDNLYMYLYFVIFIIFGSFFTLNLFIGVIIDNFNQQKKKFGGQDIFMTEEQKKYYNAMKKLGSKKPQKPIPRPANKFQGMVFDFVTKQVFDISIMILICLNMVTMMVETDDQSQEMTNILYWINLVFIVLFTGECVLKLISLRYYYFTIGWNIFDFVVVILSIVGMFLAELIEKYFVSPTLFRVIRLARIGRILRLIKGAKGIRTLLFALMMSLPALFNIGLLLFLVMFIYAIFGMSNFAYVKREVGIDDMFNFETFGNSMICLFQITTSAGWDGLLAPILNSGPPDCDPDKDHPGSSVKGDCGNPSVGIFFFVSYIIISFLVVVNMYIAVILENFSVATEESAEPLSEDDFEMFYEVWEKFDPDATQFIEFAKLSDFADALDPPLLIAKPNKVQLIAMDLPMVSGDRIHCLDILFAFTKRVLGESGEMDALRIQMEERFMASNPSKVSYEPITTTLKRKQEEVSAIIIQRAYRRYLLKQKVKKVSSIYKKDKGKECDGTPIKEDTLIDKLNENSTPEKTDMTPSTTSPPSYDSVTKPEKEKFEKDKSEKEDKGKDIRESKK
T1 sequence (Q07699 19-218 partner): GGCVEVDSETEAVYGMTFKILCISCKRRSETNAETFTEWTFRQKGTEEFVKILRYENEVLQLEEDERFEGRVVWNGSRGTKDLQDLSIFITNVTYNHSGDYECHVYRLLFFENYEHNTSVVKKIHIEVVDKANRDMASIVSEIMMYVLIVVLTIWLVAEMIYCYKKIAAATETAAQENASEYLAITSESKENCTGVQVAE
T1 sequence (O60939 30-215 partner): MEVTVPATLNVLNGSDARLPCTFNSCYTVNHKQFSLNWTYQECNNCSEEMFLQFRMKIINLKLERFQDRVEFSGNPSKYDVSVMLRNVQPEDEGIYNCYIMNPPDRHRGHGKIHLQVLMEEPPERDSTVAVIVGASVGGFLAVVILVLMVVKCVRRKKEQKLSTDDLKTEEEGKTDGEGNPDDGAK
Protocol: HEK-293 cells stably expressing wild-type (WT) hNaV1.2 (SCN2A NCBI # NM_021007.2, SCN1B NCBI # NM_001037.4, SCN2B NCBI # NM_004588.2) were used to record INa. Cells are maintained with standard tissue culture procedures and stable channel expression is maintained with 800 ug/mL G418 and 3 ug/mL Puromycin in the culture medium. Unless otherwise noted, all reagents are purchased from Sigma-Aldrich (St Louis, Mo., U.S.A.).
Assays measuring Use-Dependent Block (UDB) of Nav1.2 are performed on an automated electrophysiology platform, QPatch 16X or QPatch HT (Sophion Bioscience, Copenhagen, Denmark), using the whole cell patch clamp technique to measure currents through the cell membrane. Series resistance compensation is set to 100% and series resistance and whole-cell compensation are performed automatically. Currents stored in the Sophion Bioscience Oracle database (Sophion Bioscience, Copenhagen, Denmark). Analysis is performed using QPatch Assay software and data are compiled in Excel 2010 (Microsoft, Seattle, Wash., U.S.A.).
The internal (pipette) solution consists of (in mM) 105 CsF, 10 NaF, 20 CsCl, 2 EGTA, 10 HEPES, 10 Dextrose with a pH of 7.35 and osmolarity of 300 mOsmol/kg. The external (bath) solution contains in (mM): 145 NaCl, 4 KCl, 1.8 CaCl2, 1 MgCl2, 10 dextrose, 10 HEPES, with a pH of 7.35 and osmolarity of 310 mOsmol/kg. Experiments are carried out at 23-25° C.
Compound stocks are routinely made by the Gilead Sample Bank in vials to 10 mM in dimethyl sulfoxide (DMSO). In some cases, when compounds are not soluble in DMSO, they are made in 100% ethanol. Stocks are sonicated as necessary. […]
Cells are allowed to stabilize for 10 min after establishment of the whole-cell configuration before current is measured. The test compound is applied 2 times at 60 second intervals. After the second compound addition, a 200 second wait period was imposed to allow for equilibration. Leak currents are subtracted by using an online P/4 procedure and all currents are low-pass Bessel filtered at 5 kHz and digitized at […].
Results are presented as mean percentage inhibition.
Use-dependent block of Nav1.2 peak current is measured during pulse number 20 of a voltage pulse train (0 mV, 20 ms, 20 pulses, 25 Hz) from a holding potential of −120 mV.
Currents are normalized to the peak current recorded in response to the first pulse in each frequency train. The voltage protocol for UDB was performed in the absence and presence of compound and percentage inhibition was calculated with respect to the compound free condition.

Sequence of wild-type human cardiac sodium channel, hNav1.5 (Q14524 whole entry): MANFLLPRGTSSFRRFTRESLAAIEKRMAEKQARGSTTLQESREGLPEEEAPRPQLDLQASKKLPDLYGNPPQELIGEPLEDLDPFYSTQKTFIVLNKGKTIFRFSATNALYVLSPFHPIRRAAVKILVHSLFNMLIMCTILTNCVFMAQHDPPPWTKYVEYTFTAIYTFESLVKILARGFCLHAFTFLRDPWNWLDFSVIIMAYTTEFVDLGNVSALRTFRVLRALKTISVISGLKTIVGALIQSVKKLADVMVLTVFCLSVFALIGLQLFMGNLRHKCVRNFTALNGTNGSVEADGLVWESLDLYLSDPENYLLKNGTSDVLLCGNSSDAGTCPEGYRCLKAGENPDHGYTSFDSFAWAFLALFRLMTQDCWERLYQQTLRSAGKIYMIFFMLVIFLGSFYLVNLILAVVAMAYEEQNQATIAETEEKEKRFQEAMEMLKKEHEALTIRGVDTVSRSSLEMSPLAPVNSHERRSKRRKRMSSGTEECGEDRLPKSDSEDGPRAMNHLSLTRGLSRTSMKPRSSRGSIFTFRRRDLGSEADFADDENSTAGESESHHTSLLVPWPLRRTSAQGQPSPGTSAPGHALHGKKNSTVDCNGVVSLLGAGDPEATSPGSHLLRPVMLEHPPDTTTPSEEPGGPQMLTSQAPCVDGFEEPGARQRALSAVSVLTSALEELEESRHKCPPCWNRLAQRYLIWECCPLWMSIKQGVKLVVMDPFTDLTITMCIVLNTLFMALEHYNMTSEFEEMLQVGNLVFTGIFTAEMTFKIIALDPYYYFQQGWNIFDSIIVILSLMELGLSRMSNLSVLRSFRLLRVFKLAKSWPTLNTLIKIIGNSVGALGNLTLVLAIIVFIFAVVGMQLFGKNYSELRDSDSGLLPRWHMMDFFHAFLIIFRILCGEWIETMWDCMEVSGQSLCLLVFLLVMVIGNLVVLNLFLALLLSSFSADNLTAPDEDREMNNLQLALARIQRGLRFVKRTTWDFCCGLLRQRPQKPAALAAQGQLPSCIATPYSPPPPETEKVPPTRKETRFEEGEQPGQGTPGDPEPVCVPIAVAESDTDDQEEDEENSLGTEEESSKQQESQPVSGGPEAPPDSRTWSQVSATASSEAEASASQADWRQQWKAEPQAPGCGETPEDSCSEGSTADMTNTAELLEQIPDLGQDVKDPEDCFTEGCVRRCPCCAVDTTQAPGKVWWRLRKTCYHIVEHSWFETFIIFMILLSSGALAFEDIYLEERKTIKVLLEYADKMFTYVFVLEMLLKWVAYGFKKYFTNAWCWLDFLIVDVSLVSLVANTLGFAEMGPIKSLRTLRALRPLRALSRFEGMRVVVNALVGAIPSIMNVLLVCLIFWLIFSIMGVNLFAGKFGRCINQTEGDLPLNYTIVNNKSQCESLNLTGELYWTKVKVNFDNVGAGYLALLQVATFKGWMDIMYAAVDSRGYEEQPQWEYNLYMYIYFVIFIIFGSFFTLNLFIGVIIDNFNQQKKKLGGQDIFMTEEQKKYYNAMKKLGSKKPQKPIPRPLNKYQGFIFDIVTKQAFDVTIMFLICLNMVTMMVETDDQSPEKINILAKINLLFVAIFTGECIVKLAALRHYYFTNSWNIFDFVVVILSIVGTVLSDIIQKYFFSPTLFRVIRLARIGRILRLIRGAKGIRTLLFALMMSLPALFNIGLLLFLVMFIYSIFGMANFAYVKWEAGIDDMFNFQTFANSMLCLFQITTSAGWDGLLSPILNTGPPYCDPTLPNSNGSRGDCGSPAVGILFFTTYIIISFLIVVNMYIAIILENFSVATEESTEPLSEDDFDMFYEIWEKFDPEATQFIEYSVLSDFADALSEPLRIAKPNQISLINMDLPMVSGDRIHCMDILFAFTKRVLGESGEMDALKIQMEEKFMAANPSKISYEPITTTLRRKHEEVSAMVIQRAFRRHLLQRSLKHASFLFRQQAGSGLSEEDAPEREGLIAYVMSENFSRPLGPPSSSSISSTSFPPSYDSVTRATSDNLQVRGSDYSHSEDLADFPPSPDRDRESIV

Row | SMILES | inhibition at 0.3 µM [1] | inhibition at 1 µM [1] | inhibition at 10 µM (hNaV1.2 (SCN2A))
1 | COCCOc1noc2ccc(-c3ccc(OC(F)(F)F)cc3)cc12 [Example 60, 3-(2-methoxyethoxy)-5-(4-(trifluoromethoxy)phenyl)benzo[d]isoxazole] | 16.8% | 57.2% | < 5%
2 | COc1ccnc(COc2noc3ccc(-c4ccc(OC(F)(F)F)cc4)cc23)n1 [Example 67, 3-((4-methoxypyrimidin-2-yl)methoxy)-5-(4-(trifluoromethoxy)phenyl)benzo[d]isoxazole] | 54.4% | 77.4% | < 5%
3 | CC(COc1noc2ccc(-c3ccc(OC(F)(F)F)cc3)cc12)n1cccn1 (centres unmarked) [Example 68, 3-(2-(1H-pyrazol-1-yl)propoxy)-5-(4-(trifluoromethoxy)phenyl)benzo[d]isoxazole] | 35.8% | 62.2% | < 5%
4 | CN1CCC[C@H]1COc1noc2ccc(-c3ccc(OC(F)(F)F)cc3)cc12 [Example 71, (S)-3-((1-methylpyrrolidin-2-yl)methoxy)-5-(4-(trifluoromethoxy)phenyl)benzo[d]isoxazole] | 41.7% | 81.5% | 89.6%
5 | O=C1NCC[C@H]1Oc1noc2ccc(-c3ccc(OC(F)(F)F)cc3)cc12 [Example 72, (R)-3-((5-(4-(trifluoromethoxy)phenyl)benzo[d]isoxazol-3-yl)oxy)pyrrolidin-2-one] | 14% | 57.4% | 75.4%
6 | Cc1cnc(COc2noc3ccc(-c4ccc(OC(F)(F)F)cc4)cc23)cn1 [Example 73, 3-((5-methylpyrazin-2-yl)methoxy)-5-(4-(trifluoromethoxy)phenyl)benzo[d]isoxazole] | 20.4% | 66.2% | < 5%
7 | FC(F)(F)Oc1ccc(-c2ccc3onc(OCc4cccnn4)c3c2)cc1 [Example 74, 3-(pyridazin-3-ylmethoxy)-5-(4-(trifluoromethoxy)phenyl)benzo[d]isoxazole] | 15.7% | 60.9% | < 5%
8 | O=C1OCCN1CCOc1noc2ccc(-c3ccc(OC(F)(F)F)cc3)cc12 [Example 75, 3-(2-((5-(4-(trifluoromethoxy)phenyl)benzo[d]isoxazol-3-yl)oxy)ethyl)oxazolidin-2-one] | 29.3% | 59.5% | 27.1%
9 | Cc1cc(-c2ccc(OC(F)(F)F)cc2)cc2c(OCc3cn(C)nn3)noc12 [Example 87, 7-methyl-3-((1-methyl-1H-1,2,3-triazol-4-yl)methoxy)-5-(4-(trifluoromethoxy)phenyl)benzo[d]isoxazole] | 18.4% | 62.7% | 87%
10 | Fc1cccnc1COc1noc2ccc(-c3ccc(OC(F)(F)F)cc3)cc12 [Example 94, 3-((3-fluoropyridin-2-yl)methoxy)-5-(4-(trifluoromethoxy)phenyl)benzo[d]isoxazole] | 35.1% | 58.7% | < 5%
11 | FC(F)(F)Oc1ccc(-c2ccc3onc(OCc4nnc(C5CC5)o4)c3c2)cc1 [Example 96, 3-((5-cyclopropyl-1,3,4-oxadiazol-2-yl)methoxy)-5-(4-(trifluoromethoxy)phenyl)benzo[d]isoxazole] | 21.1% | 59.2% | 5.7%
12 | Cc1nnc(COc2noc3ccc(-c4ccc(OC(F)(F)F)cc4)cc23)o1 [Example 99, 3-((5-methyl-1,3,4-oxadiazol-2-yl)methoxy)-5-(4-(trifluoromethoxy)phenyl)benzo[d]isoxazole] | 42.3% | 72.3% | 50.5%
13 | CC(C)c1nnc(COc2noc3ccc(-c4ccc(OC(F)(F)F)cc4)cc23)o1 [Example 100, 3-((5-isopropyl-1,3,4-oxadiazol-2-yl)methoxy)-5-(4-(trifluoromethoxy)phenyl)benzo[d]isoxazole] | 31.7% | 61.9% | 11%
14 | Cc1nnc(COc2noc3ccc(-c4ccc(OC(F)(F)F)cc4)cc23)s1 [Example 101, 3-((5-methyl-1,3,4-thiadiazol-2-yl)methoxy)-5-(4-(trifluoromethoxy)phenyl)benzo[d]isoxazole] | – | 54.6% | 30.5%
15 | Cc1cc(COc2noc3ccc(-c4ccc(OC(F)(F)F)cc4)cc23)on1 [Example 102, 3-((3-methylisoxazol-5-yl)methoxy)-5-(4-(trifluoromethoxy)phenyl)benzo[d]isoxazole] | – | 43.1% | 20.6%
16 | N#CCOc1noc2ccc(-c3ccc(OC(F)(F)F)cc3)cc12 [Example 103, 2-((5-(4-(trifluoromethoxy)phenyl)benzo[d]isoxazol-3-yl)oxy)acetonitrile] | – | 38.9% | < 5%
17 | Fc1cc(-c2ccc(OC(F)(F)F)cc2)cc2c(OCc3nnc(C4CC4)o3)noc12 [Example 104, 3-((5-cyclopropyl-1,3,4-oxadiazol-2-yl)methoxy)-7-fluoro-5-(4-(trifluoromethoxy)phenyl)benzo[d]isoxazole] | – | 38.6% | 57%
18 | Cc1cc(-c2ccc(OC(F)(F)F)cc2)cc2c(OCc3nnc(C4CC4)o3)noc12 [Example 105, 3-((5-cyclopropyl-1,3,4-oxadiazol-2-yl)methoxy)-7-methyl-5-(4-(trifluoromethoxy)phenyl)benzo[d]isoxazole] | – | 53.7% | 70.9%
19 | CC(=O)N1CCC[C@H]1COc1noc2ccc(-c3ccc(OC(F)(F)F)cc3)cc12 [Example 109, (S)-1-(2-(((5-(4-(trifluoromethoxy)phenyl)benzo[d]isoxazol-3-yl)oxy)methyl)pyrrolidin-1-yl)ethan-1-one] | 25.3% | 65.7% | 39.3%
20 | CC(=O)N1CC(COc2noc3ccc(-c4ccc(OC(F)(F)F)cc4)cc23)C1 [Example 110, 1-(3-(((5-(4-(trifluoromethoxy)phenyl)benzo[d]isoxazol-3-yl)oxy)methyl)azetidin-1-yl)ethan-1-one] | 25.7% | 62.7% | 67.3%
21 | CC(C)(C)OC(=O)N1CCOC[C@H]1COc1noc2ccc(-c3ccc(OC(F)(F)F)cc3)cc12 [Example 111, tert-butyl(S)-3-(((5-(4-(trifluoromethoxy)phenyl)benzo[d]isoxazol-3-yl)oxy)methyl)morpholine-4-carboxylate] | – | 35.1% | 47.3%
22 | FC(F)(F)Oc1ccc(-c2ccc3onc(OC[C@@H]4COCCN4)c3c2)cc1 [Example 113, (S)-3-(morpholin-3-ylmethoxy)-5-(4-(trifluoromethoxy)phenyl)benzo[d]isoxazole] | 43.9% | 79.9% | 91.2%
23 | FC(F)(F)Oc1ccc(-c2ccc3onc(OC[C@H]4COCCN4)c3c2)cc1 [Example 114, (R)-3-(morpholin-3-ylmethoxy)-5-(4-(trifluoromethoxy)phenyl)benzo[d]isoxazole] | 22.5% | 61.2% | 87%
24 | CC(=O)N1CCOC[C@H]1COc1noc2ccc(-c3ccc(OC(F)(F)F)cc3)cc12 [Example 115, (S)-1-(3-(((5-(4-(trifluoromethoxy)phenyl)benzo[d]isoxazol-3-yl)oxy)methyl)morpholino)ethan-1-one] | 23.5% | 56.7% | 70.8%
25 | CC(=O)N1CCOC[C@@H]1COc1noc2ccc(-c3ccc(OC(F)(F)F)cc3)cc12 [Example 116, (R)-1-(3-(((5-(4-(trifluoromethoxy)phenyl)benzo[d]isoxazol-3-yl)oxy)methyl)morpholino)ethan-1-one] | – | 48.3% | 62.3%
